Source: patent publication US20180016244A1, “DEUTERIUM-SUBSTITUTED OXADIAZOLES” (Auspex Pharmaceuticals, Inc., priority 2015, published 2018)

Assay: In vitro human liver microsomal stability assay
Assay type: in vitro ADME
Conditions: human liver microsomes 2 mg per mL protein, NADPH-generating system, 1 μM test compound, 37±1° C., 0-240 min, change relative to non-deuterated d0 (Example 1); for Half-Life % change over d0: degradation half-life
Protocol: In Vitro Liver Microsomal Stability Assay
Human liver microsomal stability assays were conducted at 2 mg per mL liver microsome protein with an NADPH-generating system consisting of NADP (1 mM, pH 7.4), […] (5 mM, pH 7.4), and glucose-6-phosphate dehydrogenase (I unit/mL).
Test compounds were prepared as solutions in DMSO and added to the assay mixture (1 μM, final concentration in incubation) to be incubated at 37±1° C. Reactions were initiated with the addition of cofactor and were stopped at 0, 60, 120, or 240 min after cofactor addition with stop reagent (0.2 mL acetonitrile). Samples were centrifuged (920×g for 10 min at 10° C.) in 96-well plates. Supernatant fractions were analyzed by LC-MS/MS to determine the percent remaining and estimate the degradation half-life of the test compounds.

Row | Clearance % change over d0 [%] | Half-Life % change over d0 [%] | SMILES
1 | 0.00 | 0.0 | CC(C)Oc1ccc(-c2nc(-c3cccc4c3CC[C@@H]4NCCO)no2)cc1C#N [Example 1, 5-[3-[(1S)-1-[(2-hydroxyethyl)amino]-2,3-dihydro-1H-inden-4-yl]-1,2,4-oxadiazol-5-yl]-2-(propan-2-yloxy)benzonitrile, reference compound]
2 | 1 | −9.0 | [2H]C(C)(C)Oc1ccc(-c2nc(-c3cccc4c3CC[C@@H]4NCCO)no2)cc1C#N [Example 2, 5-[3-[(1S)-1-[(2-hydroxyethyl)amino]-2,3-dihydro-1H-inden-4-yl]-1,2,4-oxadiazol-5-yl]-2-[(2-^2H)propan-2-yloxy]benzonitrile]
3 | 7 | 0.0 | [2H]C([2H])([2H])C([2H])(Oc1ccc(-c2nc(-c3cccc4c3CC[C@@H]4NCCO)no2)cc1C#N)C([2H])([2H])[2H] [Example 3, 5-[3-[(1S)-1-[(2-hydroxyethyl)amino]-2,3-dihydro-1H-inden-4-yl]-1,2,4-oxadiazol-5-yl]-2-[(^2H7)propan-2-yloxy]benzonitrile]
4 | 5 | −4.6 | [2H]C(C)(C)Oc1ccc(-c2nc(-c3cccc4c3CC[C@@H]4NC([2H])([2H])C([2H])([2H])O)no2)cc1C#N [Example 4, 5-[3-[(1S)-1-[[2-hydroxy(^2H4)ethyl]amino]-2,3-dihydro-1H-inden-4-yl]-1,2,4-oxadiazol-5-yl]-2-[(2-^2H)propan-2-yloxy]benzonitrile]
5 | 11 | 0.0 | [2H]C([2H])([2H])C([2H])(Oc1ccc(-c2nc(-c3cccc4c3CC[C@@H]4NC([2H])([2H])C([2H])([2H])O)no2)cc1C#N)C([2H])([2H])[2H] [Example 5, 5-[3-[(1S)-1-[[2-hydroxy(^2H7)ethyl]amino]-2,3-dihydro-1H-inden-4-yl]-1,2,4-oxadiazol-5-yl]-2-[(^2H4)propan-2-yloxy]benzonitrile]
6 | 2 | 17.9 | [2H]C(C)(C)Oc1ccc(-c2nc(-c3cccc4c3CC[C@]4([2H])NCCO)no2)cc1C#N [Example 6, 5-[3-[(1S)-1-[(2-hydroxyethyl)amino]-2,3-dihydro(1-^2H)-1H-inden-4-yl]-1,2,4-oxadiazol-5-yl]-2-[(2-^2H)propan-2-yloxy]benzonitrile]
